Reference: PMC9223658, “New Borane-Protected Derivatives of α-Aminophosphonous Acid as Anti-Osteosarcoma Agents: ADME Analysis and Molecular Modeling, In Vitro Studies on Anti-Cancer Activities, and NEP Inhibition as a Possible Mechanism of Anti-Proliferative Activity” (International Journal of Molecular Sciences, 2022)

Columns and labels:
Type in all cases: cell-based, human
[1] = system: active caspase 3 in Saos-2 cells; assay: Active caspase 3 assay (flow cytometry); settings: 72 h
Experimental: (§1) The level of active executor caspase 3 and initiator caspase 9 was determined to examine whether compounds 4 and 6 induced apoptosis in the HOS and Saos-2 cells. The influence of compounds 4 and 6 on HOS and Saos-2 were determined with the caspase 3 assay, whereas the influence of compound 6 on the HOS cells was investigated with the caspase 9 assay. In both assays, the osteosarcoma cells (3.0 × 10^5 cells/mL) were seeded in 6-well plates. The cells were treated with compounds 4 and 6 at concentrations of 12.5, 25, 50 µM and 20, 40, 80 µM as well as 15, 30, 60 µM and 21.25, 42.5, 85 µM for 72 h, respectively. The solutions of the compounds were prepared in a medium with 2% FBS. […] Next, floating and adherent cells were harvested and subjected to further steps of the staining procedures according to the manufacturer’s instruction. The level of active caspase 3 and caspase 9 was determined using the PE Active Caspase-3 Apoptosis Kit (BD Pharmingen^TM) and the CaspaTag^TM Caspase-9 in Situ Assay Kit (Millipore, Darmstadt, Germany), respectively. The number of stained cells (active caspase 3- or 9-positive cells) was measured using FACS Calibur, and the obtained data were analyzed using Cell Quest Pro Version 6.0. for the Macintosh operating system (BD Pharmingen™). The presented results were calculated as a percent of cells with either active caspase 3 or 9 among all the analyzed cells.

[2] = system: active caspase 3 in HOS cells; assay: Active caspase 3 assay (flow cytometry); settings: 72 h
Experimental: as §1

[3] = system: osteosarcoma HOS cells; assay: MTT proliferation assay, 96 h; settings: HOS; for IC50: proliferation, 10% FBS, read-out: IC50 (µM ± SD) HOS
Experimental: (§2) One of the features specific totumor cells is the unlimited potential for proliferation. […] To this end, the assay conditions were established suchthat they encourage the proliferation of OS cells, i.e., the cell cultures at low density were incubated with compounds diluted in the growth medium (10% FBS) for an extended time of 96 h. Additionally, cisplatin, i.e., a common cytostatic used in osteosarcoma treatment, was included as a positive control in this study. Moreover, since the new generation of anti-cancer compounds is highly desired to be inert (non-cytotoxic) towards normal cells, the influence of compounds 1–7 on the viability of human normal cells (osteoblasts hFOB 1.19 and colon fibroblasts CCD-18Co) was also determined.To this end, the assay conditions were established such that they restrict the proliferation of OS cells and to establish whether the compounds have cytotoxic potential, i.e., the cell cultures were incubated with compounds diluted in the medium with a reduced concentration of FBS (2%) for a shortened time of 24 h. […] However, this activity varied depending on both the types of the compounds and the osteosarcoma cell lines (Table 4).
(§3) The anti-proliferative activity of compounds 1–7 against the HOS and Saos-2 osteosarcoma cells and the viability of the human normal hFOB 1.19 and CCD-18Co cells were screened by means of the MTT method. This method is commonly used to assess cell viability and proliferation or to determine the cytotoxicity of any compounds. It is a reliable method for this purpose because it is based on measurement of the level reduction in MTT dye to formazan byNAD(P)H-dependent oxidoreductase enzymes of metabolically active cells.
(§4) To assess the anti-proliferative activity of compounds 1–7 against the HOS and Saos-2 osteosarcoma cells, 3.0 × 10^4 cells/mLseeded (low density culture) into 96-well plates (Nunc, Roskilde, Denmark) were incubated with each compound at concentrations of 3.125, 6.25, 12.5, 25, 50, 100 and 200 µM prepared in medium with 10% FBS (growth medium) for 96 h. Additionally, cisplatin (Sigma Aldrich), i.e., a common cytostatic used in osteosarcoma treatment, was included as a positive control in this study. It was tested in the same conditions as compounds 1–7. The negative control was constituted by the untreated cells (0 µM). Next, the MTT assay was carried out as described previously.
(§5) The results of these assays were calculated as a percent of the untreated cells (100%; control). Then, the IC50 (concentration resulting in 50% inhibition of proliferation) and CC50 (concentration resulting in a 50% decrease in viability) values were calculated from a non-linear regression (log(inhibitor) vs. normalized response-variable slope) using GraphPad Prism 5.0 (GraphPAD Software Inc., San Diego, CA, USA). The IC50 and CC50 results were presented as themean ± SD of at least three experiments. In the case of the BrdU assay, the results were presented as a percent of untreated cells (100%; control).

[4] = system: osteosarcoma Saos-2 cells; assay: MTT proliferation assay, 96 h; settings: for IC50: SAOS-2, proliferation, 10% FBS, read-out: IC50 (µM ± SD) Saos-2
Experimental: as §2, §3, §4, §5

[5] = system: HOS cells; assay: Cell cycle assay (PI/RNase, flow cytometry); settings: 72 h
Experimental: (§6) To examine the influence of compounds 4 and 6 on the distribution of cells in the cell cycle phases, the HOS and Saos-2 osteosarcoma cells (3.0 × 10^4 cells/mL) were seeded into 6-well plates (Nunc) and incubated with compounds 4 and 6 at concentrations of 12.5, 25, 50 µM and 20, 40, 80 µM as well as 15, 30; 60 µM and 21.25, 42.5, 85 µM, respectively. The compound solutions were prepared in a medium with 10% FBS. The control was constituted by the untreated cells (0 µM). The cells were treated for 72 h. Next, floating and adherent cells were harvested and subjected to further steps of the PI staining procedure (PI/RNase Staining Buffer, BD Pharmingen^TM, BD Biosciences, San Jose, CA, USA) previously described. The PI fluorescence intensity was measured using FACS Calibur (BD Pharmingen^TM), and the obtained data were analyzed using Cell Quest Pro Version 6.0. for the Macintosh operating system (BD Pharmingen^TM). The presented results were calculated as a percent of cells in the respective cell cycle phases (sub-G1, G0/G1, S and G2) among all the analyzed cells.

[6] = system: Saos-2 cells; assay: Cell cycle assay (PI/RNase, flow cytometry); settings: 72 h
Experimental: as §6

IC50 ([3]; Homo sapiens) | IC50 ([4]; Homo sapiens, MTT) | Structure (SMILES) | increase in active caspase 3 vs untreated cells ([1]; Saos-2, 30 µM) | increase in active caspase 3 vs untreated cells ([1]; Saos-2, 60 µM) | increase in active caspase 3 vs untreated cells ([2]; 25 µM) | increase in active caspase 3 vs untreated cells ([2]; 50 µM) | lowest concentration that inhibited proliferation statistically significantly [3] | inhibition at 6.25 µM ([3]; Homo sapiens, 6.25 µM) | inhibition at 25 µM ([4]; Homo sapiens, Saos-2, 25 µM, MTT, compared to the control) | lowest concentration that inhibited proliferation statistically significantly ([4]; Saos-2, MTT) | number of cells at G0/G1 phase ([5]; 25 µM and 50 µM) | number of cells at sub-G1 and G2 phases ([5]; 25 µM and 50 µM) | number of cells at sub-G1 phase ([6]; Saos-2, 30 µM and 60 µM) | increase in active caspase 3 vs untreated cells ([1]; Saos-2, 42.5 µM) | increase in active caspase 3 vs untreated cells ([1]; Saos-2, 85 µM) | increase in active caspase 3 vs untreated cells ([2]; 40 µM) | increase in active caspase 3 vs untreated cells ([2]; 80 µM) | number of cells at G0/G1 phase ([5]; 40 µM and 80 µM) | number of cells at sub-G1 and G2 phases ([5]; 40 µM and 80 µM) | number of cells at sub-G1 phase ([6]; Saos-2, 42.5 µM and 85 µM)
27.2 ± 7.8 µM | 59.9 ± 15 µM | [BH3-][P+](OC(C)C)(OC(C)C)C(Nc1ccc(Br)cc1)c1ccc([N+](=O)[O-])cc1 (stereo not shown) [Compound 4, [1-(N-p-bromophenylamino)]-1-(p-nitrophenyl)methylphosphonousacid-borane diisopropyl ester] | approx. 5% | ~10% | approx. 5% | ~6% | 6.25 µM | ~18% | ~27% | 25 µM | significant decrease | statistically significant increase | significant increase | – | – | – | – | – | – | –
41.5 ± 6.9 µM | 86.8 ± 15.7 µM | [BH3-][P+](OC(C)C)(OC(C)C)C(Nc1ccc(C)cc1)c1ccccc1 (stereo not shown) [Compound 6, [1-(N-p-tolylamino)]-1-phenylmethylphosphonous acid-borane diisopropyl ester] | – | – | – | – | – | – | – | – | – | – | – | approx. 4% | ~6% | approx. 9% | ~20% | significant decrease | statistically significant increase | significant increase
